Data published in US9649295B2, “Chemical inhibitors of soluble adenylyl cyclase (sAC)” (Cornell Research Foundation, Inc., priority 2004, dated 2017).
pIC50: −log10 of the molar value. Entries after “also recorded” stand apart in the source; their conditions may differ. Where no end group is shown, it is not given here.

Key:
cAMP in INS-1E cells = assay: intracellular cAMP in INS-1E cells; format: cell-based; conditions: for effect on cAMP induced by high glucose: 16 mM glucose, 30 μM KH7, 30 μM KH7.15, 50 μM 2-hydroxyestradiol, 50 μM 2′5′ddAdo; for cAMP generation in low glucose: 2.5 mM glucose, 15 minutes, 10 nM glucagon
Protocol: (§1) Briefly, cells (passage 140-150) were plated at 2.5×10^5 cells/well in a 24 well plate and permitted to recover for two days. Cells were glucose starved by incubation for 1 hour in the presence of 2.5 mM glucose KRB medium supplemented with 2 mM sodium bicarbonate, 10 mM Hepes, and 0.1% BSA. After washing, cells were incubated in KRB with either 2.5 mM or 16 mM glucose in the presence of either vehicle control (DMSO or MeOH) or indicated drug. After the indicated time, removed media was cleared of cell debris and secreted insulin was measured by Insulin ELISA kit (Linco Research, St. Charles, Mo., or ALPCO, Windham, N.H.). If cAMP was to be concomitantly measured, cells were pre-treated with IBMX for the final 10 minutes of the glucose starvation and IBMX was included in all subsequent incubations. For the washout experiment, subsequent to initial insulin determination, cells treated with KH7 were placed in fresh KRB (2.5 mM glucose) for an additional hour and insulin release was measured as above in the absence of any added drug. For transferrin recycling, loading of cells with I^125 transferrin was performed during hour incubation in 2.5 mM glucose KRB.

INS-1E cells [1] = assay: insulin release in INS-1E cells; format: cell-based; conditions: for effect on glucose-stimulated insulin secretion (GSIS): 30 μM KH7, 30 μM KH7.15, 50 μM 2-hydroxyestradiol, 50 μM 2′5′ddAdo; for insulin release in low glucose: 2.5 mM glucose, 10 nM glucagon
Protocol: as §1

primary mouse islets = assay: insulin release from isolated mouse islets; format: cell-based; conditions: 16.7 mM glucose, 30 minutes, 30 μM KH7
Protocol: After several washes with Hank's Balanced Salt Solution, islets were hand-picked and 15-20 islets were distributed into each well of a 12 well plate to adhere overnight in RPMI-1640 media supplemented with 10 mM HEPES, 5.6 mM glucose, 10% FBS, 2 mM L-glutamine, 1 mM sodium pyruvate, and antibiotics.
Insulin release from isolated islets was performed in 12 well plates. Islets were preincubated in KRB (2.8 mM glucose) for 1 hour followed by incubation for 30 minutes in 2.8 mM glucose KRB in the presence of drug. The same wells were then incubated for an additional 30 minutes in 16.7 mM glucose KRB in the presence of the same drugs. Media was removed, cleared of cells, and insulin was measured.

INS-1E cells [2] = assay: transferrin recycling in INS-1E cells; format: cell-based; conditions: 30 minutes, KH7 30 μM
Protocol: as §1

tmACs [3] = assay: adenylyl cyclase activity in forskolin stimulated INS-1E cell lysate; conditions: forskolin (10 μM) stimulated INS-1E
Protocol: (§2) In vitro adenylyl cyclase assays were performed on purified recombinant human sACt protein as previously described in Litvin et al., “Kinetic Properties of “Soluble” Adenylyl Cyclase.

[4] = target: T1, purified recombinant human sACt protein (Homo sapiens, UniProt Q96PN6); assay: in vitro adenylyl cyclase assay on purified recombinant human sACt protein
T1 sequence (Q96PN6 1-469 limits assumed): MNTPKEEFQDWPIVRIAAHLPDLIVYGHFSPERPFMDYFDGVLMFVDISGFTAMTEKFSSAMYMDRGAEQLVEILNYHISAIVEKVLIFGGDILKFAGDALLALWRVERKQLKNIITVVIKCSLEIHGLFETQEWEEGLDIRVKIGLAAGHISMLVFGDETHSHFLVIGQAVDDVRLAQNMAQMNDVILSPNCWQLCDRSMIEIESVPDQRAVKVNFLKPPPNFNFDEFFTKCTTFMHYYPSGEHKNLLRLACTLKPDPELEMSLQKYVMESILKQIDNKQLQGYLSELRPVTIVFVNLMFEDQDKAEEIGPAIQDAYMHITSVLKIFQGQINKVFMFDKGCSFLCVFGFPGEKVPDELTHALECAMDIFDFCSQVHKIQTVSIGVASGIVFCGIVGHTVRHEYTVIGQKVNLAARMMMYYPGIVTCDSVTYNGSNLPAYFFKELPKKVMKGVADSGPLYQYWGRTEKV
Protocol: as §2

[5] = test system: CREB phosphorylation in isolated nuclei; assay: phospho-CREB immunocytochemistry of isolated nuclei; format: biochemical; conditions: 10 min; 40 mM sodium bicarbonate, 1 mM 8-Br cAMP, 10 μM forskolin
Protocol: Cell Signaling Technologies) overnight at 4° C. Staining was visualized by incubation with goat anti-rabbit Alexa Fluor 488 (Molecular Probes) for 1 h at room temperature, treated with DAPI for 5 min, and washed and mounted with gelvatol/DABCO (Sigma-Aldrich). Fluorescent images were recorded by a digital camera (Hamamatsu, Bridgewater, N.J.) connected to an inverted epifluorescent microscope (Nikon, Melville, N.Y.). Images were taken at the same exposure time and gain, and all photographic manipulations were performed equally. Phospho-CREB-positive nuclei were quantified in multiple fields from each stained slide by a blinded experimenter. […] Nuclei were also treated with DAPI to differentiate intact nuclei from membrane ghosts. DAPI-positive nuclei were scored for phosho-CREB immunofluorescence. Nuclei with detectable staining (FIG. 6A, NaHCO3) were considered positive for CREB phosphorylation, whereas nuclei with no detectable staining (FIG. 6A, Basal) were counted as negative. Multiple microscopic fields were photographed for each condition, and data was combined from three to five separate experiments.

[6] = test system: CREB phosphorylation in isolated nuclei; assay: CREB phosphorylation in isolated HeLa nuclei (P2), Western analysis; format: biochemical; conditions: for relative intensity of phospho-CREB band normalized to basal: basal 1 U, 1 mM 8-Br cAMP, 40 mM bicarbonate alone or plus 10 μM H-89 or 1 mM 8-Br-RpcAMPs
Protocol: The resuspended pellet and 60% OptiPrep iodixanol were mixed (30% OptiPrep final) and centrifuged at 10,000 g for 20 min. The supernatant was removed and the nuclei-enriched pellet (P2) was resuspended in TM-2 buffer without detergent.
Reactions were stopped by the addition of 20 μl of SDS sample buffer (CREB phosphorylation) or by being placed into a 100° C. heat block for 3 min (adenylyl cyclase).
For whole cell and isolated nuclei CREB phosphorylation assays, equal cell or nuclear equivalents were separated under reducing conditions using a 10% SDS-PAGE, transferred to a PVDF membrane, and probed for CREB (rabbit polyclonal antiserum; Chemicon, Temecula, Calif.) and phosphorylated CREB (rabbit polyclonal antiserum; Upstate Biotechnology, Temecula, Calif.). HRP-conjugated secondary antibodies were used, and bands were visualized using ECL. Image analysis software (model Fluorchem 8800; Alpha Innotech, San Leandro, Calif.) was used to quantitate Western results. Intensities of phospho-CREB bands were normalized to total CREB.

tmACs [7] = assay: cAMP forming activity inside cells stimulated with forskolin; format: cell-based; conditions: read-out: in vivo IC50 tmAC (FSK)
sAC = target: T2, sAC (Homo sapiens, UniProt Q96PN6); assay: cAMP forming activity inside cells stably overexpressing sAC; format: cell-based; conditions: read-out: in vivo IC50 sAC (basal)
T2 construct: expressed in transfected cells

[8] = target: T3, purified solubilized version of Type VII tmAC (sol.AC7) (Homo sapiens, UniProt P51828); assay: in vitro cyclase activity of purified solubilized Type VII tmAC; format: biochemical; conditions: read-out: in vitro IC50 pure sol.AC7
T3 construct: a mixture of purified catalytic domains, C1 and C2, from Type VII tmAC; made in house

[9] = target: T4, purified sperm isoform of sAC protein (pure sAC) (Homo sapiens, UniProt Q96PN6); assay: in vitro cyclase activity of purified sAC protein (Table 1); format: biochemical; conditions: for IC50: μM; for pIC50: unit inferred
T4 construct: generated against human 48-kD isoform of sAC (sACt) antigen; made in house
T4 sequence (Q96PN6 1-469 limits assumed): T1 sequence (Q96PN6 1-469 limits assumed)

[10] = target: T5, Type II tmAC (tmAC in extracts) (Homo sapiens, UniProt Q08462); assay: in vitro cyclase activity in extracts of cells overexpressing Type II tmAC; format: biochemical; conditions: unit inferred
T5 construct: expressed in transfected cells

[11] = target: T6, sperm sAC (sAC in extracts) (UniProt Q96PN6); assay: in vitro cyclase activity in whole cell extracts from cells overexpressing sperm sAC cDNA; format: biochemical; conditions: unit inferred
T6 construct: whole cell extracts from cells overexpressing sperm sAC cDNA (sAC in extracts)

Plasmodium falciparum = Plasmodium falciparum viability, luciferase assay; format: cell-based
Protocol: . Plasmodium cultures were incubated in the indicated concentrations of KH7 or KH7.15 for 24 hours and viability assessed by luciferase assay (FIG. 16A). […].
Therefore, the effect of sAC inhibitors on P. falciparum viability was tested. […].

PfAC = assay: adenylyl cyclase activity in whole cell extract of isolated parasites; format: biochemical, Plasmodium falciparum

T2 sequence (Q96PN6 whole entry, species assumed): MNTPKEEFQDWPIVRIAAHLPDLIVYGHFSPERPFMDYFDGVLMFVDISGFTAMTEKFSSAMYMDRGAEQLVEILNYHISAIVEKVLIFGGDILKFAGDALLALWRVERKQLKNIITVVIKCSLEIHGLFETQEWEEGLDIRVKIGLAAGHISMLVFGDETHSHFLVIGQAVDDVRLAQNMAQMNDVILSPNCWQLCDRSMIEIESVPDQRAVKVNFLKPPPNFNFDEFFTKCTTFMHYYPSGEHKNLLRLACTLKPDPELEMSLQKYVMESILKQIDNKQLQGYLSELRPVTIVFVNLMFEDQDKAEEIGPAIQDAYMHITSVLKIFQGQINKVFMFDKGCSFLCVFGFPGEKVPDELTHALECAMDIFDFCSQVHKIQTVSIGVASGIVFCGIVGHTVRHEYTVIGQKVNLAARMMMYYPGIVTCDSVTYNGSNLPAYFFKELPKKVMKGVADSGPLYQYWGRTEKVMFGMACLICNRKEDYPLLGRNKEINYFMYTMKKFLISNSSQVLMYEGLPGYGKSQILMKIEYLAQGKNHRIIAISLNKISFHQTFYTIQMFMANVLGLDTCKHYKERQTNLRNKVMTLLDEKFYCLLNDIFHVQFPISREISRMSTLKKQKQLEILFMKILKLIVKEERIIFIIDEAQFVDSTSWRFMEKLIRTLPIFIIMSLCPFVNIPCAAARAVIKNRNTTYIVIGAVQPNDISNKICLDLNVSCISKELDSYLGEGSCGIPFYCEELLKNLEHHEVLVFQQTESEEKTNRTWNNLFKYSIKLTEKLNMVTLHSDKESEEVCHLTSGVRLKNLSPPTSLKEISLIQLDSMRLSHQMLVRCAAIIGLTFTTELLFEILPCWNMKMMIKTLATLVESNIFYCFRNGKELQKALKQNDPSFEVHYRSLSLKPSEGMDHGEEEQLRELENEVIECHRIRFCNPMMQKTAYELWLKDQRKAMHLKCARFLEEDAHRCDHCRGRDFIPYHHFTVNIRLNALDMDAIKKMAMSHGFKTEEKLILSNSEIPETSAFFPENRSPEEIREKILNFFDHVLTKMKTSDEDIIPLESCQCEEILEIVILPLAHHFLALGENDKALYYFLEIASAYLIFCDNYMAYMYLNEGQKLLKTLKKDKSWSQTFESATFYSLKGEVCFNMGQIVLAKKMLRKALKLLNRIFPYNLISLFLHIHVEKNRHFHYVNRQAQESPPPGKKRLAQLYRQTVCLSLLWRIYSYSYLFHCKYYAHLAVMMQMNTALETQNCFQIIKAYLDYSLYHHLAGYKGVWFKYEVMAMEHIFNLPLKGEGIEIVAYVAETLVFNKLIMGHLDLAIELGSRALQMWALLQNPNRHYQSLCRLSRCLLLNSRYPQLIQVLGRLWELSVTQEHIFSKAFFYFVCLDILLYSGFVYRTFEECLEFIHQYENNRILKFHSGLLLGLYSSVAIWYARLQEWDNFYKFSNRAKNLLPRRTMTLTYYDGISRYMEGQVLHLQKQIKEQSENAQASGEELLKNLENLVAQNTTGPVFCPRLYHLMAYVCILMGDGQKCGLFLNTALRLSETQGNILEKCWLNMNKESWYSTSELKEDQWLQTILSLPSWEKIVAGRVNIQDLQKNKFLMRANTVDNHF
T5 sequence (Q08462 whole entry): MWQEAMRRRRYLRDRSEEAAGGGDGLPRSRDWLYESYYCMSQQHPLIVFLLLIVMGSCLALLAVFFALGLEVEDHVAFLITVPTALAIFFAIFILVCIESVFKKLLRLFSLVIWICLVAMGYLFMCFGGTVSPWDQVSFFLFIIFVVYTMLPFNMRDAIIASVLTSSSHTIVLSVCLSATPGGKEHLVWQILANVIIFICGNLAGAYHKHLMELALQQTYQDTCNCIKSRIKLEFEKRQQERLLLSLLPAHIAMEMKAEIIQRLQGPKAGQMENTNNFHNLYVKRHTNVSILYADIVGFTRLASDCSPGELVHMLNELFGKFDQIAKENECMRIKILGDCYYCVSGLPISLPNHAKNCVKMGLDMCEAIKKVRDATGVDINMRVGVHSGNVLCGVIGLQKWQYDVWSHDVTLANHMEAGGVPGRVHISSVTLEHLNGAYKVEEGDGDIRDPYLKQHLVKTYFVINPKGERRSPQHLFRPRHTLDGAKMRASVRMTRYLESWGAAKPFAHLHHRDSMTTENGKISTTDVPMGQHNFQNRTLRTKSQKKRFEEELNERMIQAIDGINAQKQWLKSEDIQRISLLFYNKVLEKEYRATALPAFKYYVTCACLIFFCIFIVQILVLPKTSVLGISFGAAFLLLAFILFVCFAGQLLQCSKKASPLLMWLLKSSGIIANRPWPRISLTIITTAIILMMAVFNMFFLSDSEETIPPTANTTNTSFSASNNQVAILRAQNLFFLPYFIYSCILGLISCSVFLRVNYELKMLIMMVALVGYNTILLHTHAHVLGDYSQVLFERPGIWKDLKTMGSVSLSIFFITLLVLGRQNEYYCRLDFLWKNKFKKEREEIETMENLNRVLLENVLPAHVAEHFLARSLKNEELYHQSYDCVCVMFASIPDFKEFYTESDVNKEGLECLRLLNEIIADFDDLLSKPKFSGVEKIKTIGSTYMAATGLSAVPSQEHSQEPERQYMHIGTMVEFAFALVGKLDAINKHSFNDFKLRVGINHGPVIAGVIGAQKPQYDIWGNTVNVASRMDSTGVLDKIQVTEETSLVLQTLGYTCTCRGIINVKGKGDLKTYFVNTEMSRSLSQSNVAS
T3 sequence (P51828 279-406 limits assumed): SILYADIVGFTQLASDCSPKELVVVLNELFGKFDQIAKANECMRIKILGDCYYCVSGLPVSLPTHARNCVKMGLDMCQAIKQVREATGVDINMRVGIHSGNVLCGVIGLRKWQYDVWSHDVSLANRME
T3 sequence (P51828 879-1023 limits assumed): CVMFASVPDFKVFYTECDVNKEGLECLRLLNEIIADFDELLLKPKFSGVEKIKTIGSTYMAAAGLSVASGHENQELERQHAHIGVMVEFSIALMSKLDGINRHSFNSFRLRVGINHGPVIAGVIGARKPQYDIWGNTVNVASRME

C[C@]12CC[C@@H]3c4cc(O)c(O)cc4CC[C@H]3[C@@H]1CC[C@@H]2O [2-hydroxyestradiol, reference compound]
effect on cAMP induced by high glucose (cAMP in INS-1E cells): blocked the cAMP induced by the presence of high glucose
effect on glucose-stimulated insulin secretion (GSIS) (INS-1E cells [1]; 16 mM glucose): completely inhibited GSIS
effect on insulin release induced by high glucose in islets (primary mouse islets): inhibited insulin release induced by high glucose
effect on transferrin recycling (INS-1E cells [2]): unaffected

C[C@H]1O[C@@H](n2cnc3c(N)ncnc32)C[C@@H]1O [2′5′ddAdo, 2′5′ dideoxyadenosine]
effect on tmACs (tmACs [3]): potent inhibitor of tmACs
effect on sAC ([4]; bicarbonate/calcium stimulated pure sAC, concentrations up to 300 μM): did not significantly affect sAC; also recorded: inert towards sAC
effect on cAMP induced by high glucose (cAMP in INS-1E cells): partially decreased glucose-induced cAMP generation

Nc1ncnc2c1nc(Br)n2[C@@H]1O[C@@H]2COP(=O)(O)O[C@H]2[C@H]1O [8-Br-cAMP]
percentage of phospho-CREB-positive nuclei relative to basal [5]: at least a twofold rise
relative intensity of phospho-CREB band normalized to basal [6]: 30 U
increase in CREB phosphorylation ([6]; isolated nuclei, Western): 30 fold

CC(C)Cn1c(=O)n(C)c(=O)c2[nH]cnc21 [IBMX, reference compound]
restoration of GSIS in the presence of KH7 (INS-1E cells [1]; 0.5 mM IBMX, 30 μM KH7): did not restore GSIS in the presence of KH7 inhibition
enhancement of GSIS (INS-1E cells [1]; 0.5 mM IBMX, 16 mM glucose, 15 minutes): at least 2 fold

CCCCOc1ccc(C2=N/C(=C\C(Br)=C\c3ccccc3)C(=O)O2)cc1 [KH1]
pIC50 (tmACs [7]): < 3.30
pIC50 (sAC): < 3.30
pIC50 [8]: < 3.70
IC50 [9]: 23 µM

COc1ccc(/C=C2\C(=O)N(c3nc(-c4ccc(Cl)cc4)cs3)N=C2c2ccccc2)cc1OC [KH2]
pIC50 [10]: < 4.00
pIC50 (tmACs [7]): < 3.30
pIC50 (sAC): < 3.30
pIC50 [11]: < 4.00
pIC50 [8]: < 3.40
IC50 [9]: 2 µM

Cc1ccc(C)c(N2C(=O)/C(=C/c3ccc(Cl)cc3)C=C2c2ccccc2)c1 [KH3]
pIC50 [10]: < 4.00
pIC50 (tmACs [7]): < 3.30
pIC50 (sAC): < 3.30
pIC50 [11]: < 4.00
pIC50 [8]: < 3.30
IC50 [9]: 8 µM

Cc1ccccc1N1C(=O)/C(=C/c2ccc(-c3ccc(Cl)c(Cl)c3)o2)C=C1c1ccccc1 [KH4]
pIC50 [10]: < 4.00
pIC50 (tmACs [7]): < 3.30
pIC50 (sAC): < 3.30
pIC50 [11]: < 4.00
pIC50 [8]: < 4.57
IC50 [9]: 6 µM

COc1ccc(Br)cc1/C=N/NC(=O)CSc1nc2ccccc2[nH]1 [KH7.05]
pIC50 (tmACs [7]): < 3.70
pIC50 (sAC): 4.52
pIC50 [9]: ~4.52

O=C(CSc1nc2ccccc2[nH]1)N/N=C/c1c(F)cccc1Cl [KH7.06]
pIC50 [9]: ~4.52

O=C(CSc1nc2ccccc2[nH]1)N/N=C/c1cc(Br)ccc1O [KH7.07]
pIC50 (tmACs [7]): < 3.70
pIC50 (sAC): 4.52
IC50 [9]: 30 µM

Cc1ccsc1/C=N/NC(=O)CSc1nc2ccccc2n1Cc1ccccc1 [KH7.10]
pIC50 [9]: 4.10

CCn1c(SCC(=O)N/N=C/c2cc(Br)ccc2O)nc2ccccc21 [KH7.13]
pIC50 [9]: 4.12

COc1cc(/C=N/NC(=O)CSc2nc3ccccc3[nH]2)ccc1O [KH7.15]
effect on tmACs (tmACs [3]): inert
effect on cyclase activity of purified sAC ([4]; bicarbonate (40 mM) and calcium (0.5 mM)): inert
effect on cAMP induced by high glucose (cAMP in INS-1E cells): not
dose required to kill parasites (Plasmodium falciparum): ≥ 100 µM
lower affinity for killing P. falciparum relative to KH7 (Plasmodium falciparum): 10 fold
dose required to inhibit PfAC activity (PfAC): ≥ 100 µM
lower affinity for inhibiting PfAC activity relative to KH7 (PfAC): 10 fold
effect on glucose-stimulated insulin secretion (GSIS) (INS-1E cells [1]; 16 mM glucose): did not affect insulin secretion

Nc1ncnc2c1ncn2[C@@H]1O[C@@H]2CO[P@@](O)(=S)O[C@H]2[C@H]1O [RpcAMPs]
relative intensity of phospho-CREB band normalized to basal [6]: 8 U
reduction of CREB phosphorylation induced by bicarbonate ([6]; isolated nuclei, 40 mM bicarbonate): 70%

GLP-1: hormone stimulating tmACs (HAEGTFTSDVSSYLEGQAAKEFIAWLVKGR; ends and bridges not checked; UniProt P01275 98-127, looked up) [reference compound]
cAMP generation in low glucose (cAMP in INS-1E cells): three fold increase in cAMP generation
insulin release in low glucose (INS-1E cells [1]; 15 minutes): no significant increase in insulin release

glucagon: hormone stimulating tmACs [reference compound]
cAMP generation in low glucose (cAMP in INS-1E cells): three fold increase in cAMP generation
insulin release in low glucose (INS-1E cells [1]; 15 minutes): no significant increase in insulin release
